Data as given in the supplement of paper PMC6315032.

Columns and labels:
Assay in all cases: apparent dissociation constant (pKDapp, Kinobeads competition, Cheng-Prusoff corrected) (-log10 M); higher = tighter binding
OXSR1 = OXSR1 (UniProt O95747); details: affinity matrix / lysate: Kinobeads, mixed HEK293/K-562/placenta lysate
BRAF = BRAF (UniProt P15056); details: affinity matrix / lysate: Kinobeads, mixed HEK293/K-562/placenta lysate
CDK8 = CDK8 (UniProt P49336); details: affinity matrix / lysate: Kinobeads, mixed HEK293/K-562/placenta lysate
BRSK1 = BRSK1 (UniProt Q8TDC3); details: affinity matrix / lysate: Kinobeads, mixed HEK293/K-562/placenta lysate
TAOK1 = TAOK1 (UniProt Q7L7X3); details: affinity matrix / lysate: Kinobeads, mixed HEK293/K-562/placenta lysate
MET = MET (UniProt P08581); details: affinity matrix / lysate: Kinobeads, mixed HEK293/K-562/placenta lysate
STK3 = STK3 (UniProt Q13188); details: affinity matrix / lysate: Kinobeads, mixed HEK293/K-562/placenta lysate
CHEK2 = CHEK2 (UniProt O96017); details: affinity matrix / lysate: Kinobeads, mixed HEK293/K-562/placenta lysate
MAPK3 = MAPK3 (UniProt P27361); details: affinity matrix / lysate: Kinobeads, mixed HEK293/K-562/placenta lysate
CDK7 = CDK7 (UniProt P50613); details: affinity matrix / lysate: Kinobeads, mixed HEK293/K-562/placenta lysate
PLK1 = PLK1 (UniProt P53350); details: affinity matrix / lysate: Kinobeads, mixed HEK293/K-562/placenta lysate
GSK3B = GSK3B (UniProt P49841); details: affinity matrix / lysate: Kinobeads, mixed HEK293/K-562/placenta lysate
BMP2K = BMP2K (UniProt Q9NSY1); details: affinity matrix / lysate: Kinobeads, mixed HEK293/K-562/placenta lysate
CSNK1A1 = CSNK1A1 (UniProt P48729); details: affinity matrix / lysate: Kinobeads, mixed HEK293/K-562/placenta lysate
BCR = BCR (UniProt P11274); details: affinity matrix / lysate: Kinobeads, mixed HEK293/K-562/placenta lysate
EPHA1 = EPHA1 (UniProt P21709); details: affinity matrix / lysate: Kinobeads, mixed HEK293/K-562/placenta lysate
STK4 = STK4 (UniProt Q13043); details: affinity matrix / lysate: Kinobeads, mixed HEK293/K-562/placenta lysate
ACVR2B = ACVR2B (UniProt Q13705); details: affinity matrix / lysate: Kinobeads, mixed HEK293/K-562/placenta lysate
MAPK7 = MAPK7 (UniProt Q13164); details: affinity matrix / lysate: Kinobeads, mixed HEK293/K-562/placenta lysate
CAMK2D = CAMK2D (UniProt Q13557); details: affinity matrix / lysate: Kinobeads, mixed HEK293/K-562/placenta lysate
TGFBR2 = TGFBR2 (UniProt P37173); details: affinity matrix / lysate: Kinobeads, mixed HEK293/K-562/placenta lysate
LATS2 = LATS2 (UniProt Q9NRM7); details: affinity matrix / lysate: Kinobeads, mixed HEK293/K-562/placenta lysate
MAP2K6 = MAP2K6 (UniProt P52564); details: affinity matrix / lysate: Kinobeads, mixed HEK293/K-562/placenta lysate
SNRK = SNRK (UniProt Q9NRH2); details: affinity matrix / lysate: Kinobeads, mixed HEK293/K-562/placenta lysate
IKBKE = IKBKE (UniProt Q14164); details: affinity matrix / lysate: Kinobeads, mixed HEK293/K-562/placenta lysate
FES = FES (UniProt P07332); details: affinity matrix / lysate: Kinobeads, mixed HEK293/K-562/placenta lysate
PIP5K3 = PIP5K3 (UniProt Q9Y2I7); details: affinity matrix / lysate: Kinobeads, mixed HEK293/K-562/placenta lysate
STK39 = STK39 (UniProt Q9UEW8); details: affinity matrix / lysate: Kinobeads, mixed HEK293/K-562/placenta lysate
HIPK2 = HIPK2 (UniProt Q9H2X6); details: affinity matrix / lysate: Kinobeads, mixed HEK293/K-562/placenta lysate
MARK4 = MARK4 (UniProt Q96L34); details: affinity matrix / lysate: Kinobeads, mixed HEK293/K-562/placenta lysate
RPS6KA6 = RPS6KA6 (UniProt Q9UK32); details: affinity matrix / lysate: Kinobeads, mixed HEK293/K-562/placenta lysate
PI4KB = PI4KB (UniProt Q9UBF8); details: affinity matrix / lysate: Lipid Kinobeads, mixed HeLa/Jurkat/K-562 lysate
PRKAA2 = PRKAA2 (UniProt P54646); details: affinity matrix / lysate: Kinobeads, mixed HEK293/K-562/placenta lysate

Measured: apparent dissociation constant (-log10 M)

PLK1, sequence (P53350 whole entry): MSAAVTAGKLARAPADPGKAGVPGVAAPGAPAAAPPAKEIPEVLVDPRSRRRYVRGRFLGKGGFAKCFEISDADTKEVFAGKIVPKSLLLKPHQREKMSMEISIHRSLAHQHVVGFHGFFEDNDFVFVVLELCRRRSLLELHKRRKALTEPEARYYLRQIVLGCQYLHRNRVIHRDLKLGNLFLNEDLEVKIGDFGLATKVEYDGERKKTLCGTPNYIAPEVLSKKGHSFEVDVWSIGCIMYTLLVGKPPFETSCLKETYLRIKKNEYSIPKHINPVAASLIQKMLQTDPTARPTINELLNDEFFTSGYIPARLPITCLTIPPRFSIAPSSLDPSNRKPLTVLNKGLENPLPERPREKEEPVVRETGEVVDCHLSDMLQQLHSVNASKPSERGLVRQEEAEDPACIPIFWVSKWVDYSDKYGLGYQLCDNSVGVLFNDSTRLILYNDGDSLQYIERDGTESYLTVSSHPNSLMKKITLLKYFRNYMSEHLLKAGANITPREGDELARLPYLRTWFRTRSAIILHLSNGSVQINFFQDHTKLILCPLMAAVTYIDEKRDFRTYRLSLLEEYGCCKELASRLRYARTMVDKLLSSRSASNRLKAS
MAP2K6, sequence (P52564 whole entry): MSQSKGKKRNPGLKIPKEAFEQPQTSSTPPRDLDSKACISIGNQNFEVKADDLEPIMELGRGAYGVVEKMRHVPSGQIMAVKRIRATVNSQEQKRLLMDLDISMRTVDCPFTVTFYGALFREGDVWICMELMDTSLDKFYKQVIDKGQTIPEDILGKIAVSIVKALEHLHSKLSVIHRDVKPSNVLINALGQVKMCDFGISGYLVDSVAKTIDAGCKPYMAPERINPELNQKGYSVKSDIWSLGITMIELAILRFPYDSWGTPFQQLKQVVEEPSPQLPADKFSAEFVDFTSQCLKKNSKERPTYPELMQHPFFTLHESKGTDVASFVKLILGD
PIP5K3, sequence (Q9Y2I7 whole entry): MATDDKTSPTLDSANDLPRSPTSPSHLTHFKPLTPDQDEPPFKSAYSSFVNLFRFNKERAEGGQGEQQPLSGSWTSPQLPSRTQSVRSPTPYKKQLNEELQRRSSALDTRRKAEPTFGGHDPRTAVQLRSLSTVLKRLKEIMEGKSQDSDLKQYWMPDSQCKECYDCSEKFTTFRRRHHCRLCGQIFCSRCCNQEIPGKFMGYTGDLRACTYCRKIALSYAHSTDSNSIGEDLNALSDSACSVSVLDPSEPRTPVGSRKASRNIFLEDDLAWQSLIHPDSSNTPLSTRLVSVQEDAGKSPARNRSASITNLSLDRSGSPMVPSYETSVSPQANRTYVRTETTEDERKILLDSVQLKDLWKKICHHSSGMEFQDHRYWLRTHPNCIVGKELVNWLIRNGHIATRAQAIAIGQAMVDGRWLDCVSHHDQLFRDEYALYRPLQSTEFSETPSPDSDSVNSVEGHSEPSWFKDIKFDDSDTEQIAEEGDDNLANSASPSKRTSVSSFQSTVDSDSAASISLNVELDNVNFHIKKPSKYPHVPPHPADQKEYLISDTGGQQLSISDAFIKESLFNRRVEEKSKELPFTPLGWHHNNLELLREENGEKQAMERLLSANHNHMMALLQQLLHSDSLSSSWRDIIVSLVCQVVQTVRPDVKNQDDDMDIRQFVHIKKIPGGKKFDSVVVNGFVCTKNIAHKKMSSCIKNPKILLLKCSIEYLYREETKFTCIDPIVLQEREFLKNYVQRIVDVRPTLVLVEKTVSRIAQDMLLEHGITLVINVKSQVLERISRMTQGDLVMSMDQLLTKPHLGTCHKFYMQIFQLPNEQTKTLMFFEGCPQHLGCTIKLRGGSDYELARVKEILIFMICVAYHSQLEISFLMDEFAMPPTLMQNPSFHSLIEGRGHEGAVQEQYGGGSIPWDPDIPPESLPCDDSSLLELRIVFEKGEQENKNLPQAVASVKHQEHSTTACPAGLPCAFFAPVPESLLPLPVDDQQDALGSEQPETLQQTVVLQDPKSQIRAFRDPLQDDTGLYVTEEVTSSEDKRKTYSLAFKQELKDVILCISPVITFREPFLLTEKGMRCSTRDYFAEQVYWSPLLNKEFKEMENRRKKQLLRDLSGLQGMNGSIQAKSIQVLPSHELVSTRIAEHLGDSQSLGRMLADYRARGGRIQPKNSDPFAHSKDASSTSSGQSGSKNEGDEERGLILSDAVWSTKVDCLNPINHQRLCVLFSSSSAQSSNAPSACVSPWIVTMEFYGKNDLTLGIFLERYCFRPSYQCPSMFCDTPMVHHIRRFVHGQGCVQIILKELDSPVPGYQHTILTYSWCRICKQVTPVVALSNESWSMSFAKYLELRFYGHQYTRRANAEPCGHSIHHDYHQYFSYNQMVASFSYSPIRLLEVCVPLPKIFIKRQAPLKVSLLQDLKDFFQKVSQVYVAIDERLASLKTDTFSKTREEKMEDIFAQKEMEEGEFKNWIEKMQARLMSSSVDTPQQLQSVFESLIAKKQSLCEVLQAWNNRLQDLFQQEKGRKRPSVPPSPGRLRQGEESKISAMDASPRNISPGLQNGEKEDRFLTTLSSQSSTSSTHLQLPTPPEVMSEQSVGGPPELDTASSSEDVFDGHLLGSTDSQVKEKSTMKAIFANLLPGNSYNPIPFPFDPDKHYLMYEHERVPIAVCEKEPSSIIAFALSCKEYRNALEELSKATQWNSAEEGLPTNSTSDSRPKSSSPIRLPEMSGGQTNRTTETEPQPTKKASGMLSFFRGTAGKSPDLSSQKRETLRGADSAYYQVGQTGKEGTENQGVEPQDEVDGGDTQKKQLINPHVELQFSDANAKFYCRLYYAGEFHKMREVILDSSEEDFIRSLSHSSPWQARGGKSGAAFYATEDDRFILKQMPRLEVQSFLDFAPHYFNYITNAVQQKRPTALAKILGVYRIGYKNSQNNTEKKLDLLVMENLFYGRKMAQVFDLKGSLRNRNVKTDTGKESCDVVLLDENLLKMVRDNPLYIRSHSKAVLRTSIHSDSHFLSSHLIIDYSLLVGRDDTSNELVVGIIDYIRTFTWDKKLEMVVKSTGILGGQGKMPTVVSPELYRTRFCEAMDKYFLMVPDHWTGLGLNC
IKBKE, sequence (Q14164 whole entry): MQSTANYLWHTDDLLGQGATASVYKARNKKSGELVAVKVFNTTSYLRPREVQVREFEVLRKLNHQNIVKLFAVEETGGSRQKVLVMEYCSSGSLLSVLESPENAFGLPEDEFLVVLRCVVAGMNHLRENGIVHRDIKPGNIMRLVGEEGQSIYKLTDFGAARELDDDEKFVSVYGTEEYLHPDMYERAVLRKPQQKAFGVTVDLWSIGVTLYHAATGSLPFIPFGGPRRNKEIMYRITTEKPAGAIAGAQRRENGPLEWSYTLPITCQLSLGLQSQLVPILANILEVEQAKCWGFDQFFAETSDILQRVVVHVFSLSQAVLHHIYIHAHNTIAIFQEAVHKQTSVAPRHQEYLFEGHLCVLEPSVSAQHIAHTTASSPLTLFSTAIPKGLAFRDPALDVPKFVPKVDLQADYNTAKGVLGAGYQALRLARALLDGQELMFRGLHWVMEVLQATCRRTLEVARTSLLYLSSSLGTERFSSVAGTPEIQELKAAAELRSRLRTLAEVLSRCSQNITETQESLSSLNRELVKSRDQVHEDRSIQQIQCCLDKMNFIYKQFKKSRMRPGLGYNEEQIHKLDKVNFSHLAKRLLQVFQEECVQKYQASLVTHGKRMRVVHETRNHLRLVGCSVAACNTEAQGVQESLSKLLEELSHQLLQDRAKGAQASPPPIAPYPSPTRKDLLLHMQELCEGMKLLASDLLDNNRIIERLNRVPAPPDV
MAPK7, sequence (Q13164 whole entry, looked up): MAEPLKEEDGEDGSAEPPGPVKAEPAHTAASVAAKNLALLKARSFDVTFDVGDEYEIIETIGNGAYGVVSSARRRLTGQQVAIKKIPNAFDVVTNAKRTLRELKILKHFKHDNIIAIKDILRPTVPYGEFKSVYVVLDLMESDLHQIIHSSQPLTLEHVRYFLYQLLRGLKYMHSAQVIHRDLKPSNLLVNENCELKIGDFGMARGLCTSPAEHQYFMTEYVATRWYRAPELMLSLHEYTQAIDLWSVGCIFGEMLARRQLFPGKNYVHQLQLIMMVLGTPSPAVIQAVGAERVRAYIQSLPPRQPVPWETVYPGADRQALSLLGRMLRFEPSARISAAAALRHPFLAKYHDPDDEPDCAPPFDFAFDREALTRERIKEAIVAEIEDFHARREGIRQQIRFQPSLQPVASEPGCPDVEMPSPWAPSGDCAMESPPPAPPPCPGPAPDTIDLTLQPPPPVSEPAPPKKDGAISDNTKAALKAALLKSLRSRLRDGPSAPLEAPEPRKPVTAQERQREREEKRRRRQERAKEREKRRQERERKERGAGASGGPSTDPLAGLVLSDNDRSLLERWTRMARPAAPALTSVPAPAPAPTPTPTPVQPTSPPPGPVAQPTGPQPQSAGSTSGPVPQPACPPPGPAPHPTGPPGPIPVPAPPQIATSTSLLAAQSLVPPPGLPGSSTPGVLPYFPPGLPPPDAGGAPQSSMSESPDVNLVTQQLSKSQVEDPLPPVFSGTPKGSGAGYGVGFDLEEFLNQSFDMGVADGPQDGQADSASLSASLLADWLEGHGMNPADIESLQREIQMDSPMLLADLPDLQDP
OXSR1, sequence (O95747 whole entry, looked up): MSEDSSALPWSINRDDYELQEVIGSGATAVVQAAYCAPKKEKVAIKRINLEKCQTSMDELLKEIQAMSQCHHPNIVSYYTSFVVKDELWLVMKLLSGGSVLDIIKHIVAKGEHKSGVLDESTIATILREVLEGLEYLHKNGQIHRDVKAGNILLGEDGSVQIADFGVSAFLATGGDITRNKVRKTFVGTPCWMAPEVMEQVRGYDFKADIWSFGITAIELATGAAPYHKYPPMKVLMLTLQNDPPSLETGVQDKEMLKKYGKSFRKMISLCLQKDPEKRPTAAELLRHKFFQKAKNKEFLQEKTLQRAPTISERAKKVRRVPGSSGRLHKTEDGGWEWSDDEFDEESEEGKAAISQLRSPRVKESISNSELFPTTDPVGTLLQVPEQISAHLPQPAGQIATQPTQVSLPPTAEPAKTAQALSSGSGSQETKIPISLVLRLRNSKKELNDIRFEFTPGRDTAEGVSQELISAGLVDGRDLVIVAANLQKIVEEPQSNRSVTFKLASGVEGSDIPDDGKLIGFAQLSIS

COc1ccc(-c2ccc3c(N4CCOC[C@@H]4C)nc(N4CCOC[C@@H]4C)nc3n2)cc1CO [AZD8055]
< 6: all assays above

CCNC(=O)Nc1ccc(-c2nc(N3CCOC[C@@H]3C)c3c(n2)C(C)(C)S(=O)(=O)C3)cc1 [CZ415]
< 6: all assays above
